Active and inactive are the calls of the source.
Experiments:
[1] = HEK293T cell cytotoxicity, dose response, cytotoxicity control, CellTiter-Glo luminescence, dry powder, set 6 (AID 651949); type: functional, cell-based; settings: HEK293
[2] = T. b. rhodesiense proliferation inhibition, dose response, STIB900 strain, plate reader, cherry pick (AID 651893); type: functional, cell-based; settings: Trypanosoma brucei
[3] = T. cruzi growth inhibition in host cells, dose response, cell-based, plate reader, dry powder, set 2 (AID 652275); type: functional
[4] = intracellular Trypanosoma cruzi inhibitors in host cells – cell-based, plate reader, cherry-pick samples, set 3, dose response (AID 651818); type: functional;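 further: compounds incubated with infected cells for about four days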
[5] = Inhibition of Plasmodium falciparum NF54 Measured in Cell-Based System Using Plate Reader - 2138-11_Inhibitor_Dose_CherryPick_Activity.; type: functional
[6] = cytotoxicity in L-6 rat myocytes, dose response, cytotoxicity control, cell-based, plate reader, cherry-pick (AID 651896); type: functional
[7] = growth inhibition of intracellular T. cruzi, dose response, cell-based, plate reader, dry powder samples (AID 651845); type: functional
[8] = T. cruzi intracellular amastigote growth inhibition, dose response, imaging, CA-I/72 strain, bovine embryo skeletal muscle, dry powder (AID 651885); type: functional, cell-based
[9] = Inhibition of T. cruzi Tulahuen strain amastigotes in L-6 muscle cells Measured in Cell-Based and Microorganism Combination System Using Plate Reader - 2138-03_Inhibitor_Dose_CherryPick_Activity.; type: functional; settings: Rattus norvegicus, L6
[10] = L. donovani amastigote growth inhibition, dose response, axenic amastigotes, plate reader, cherry pick (AID 651891); type: functional, cell-based; settings: Leishmania donovani
[11] = target: NAD-dependent protein deacylase sirtuin-5, mitochondrial (Homo sapiens, UniProt Q9NXA8); test: SIRT5 desuccinylase inhibitors, dose response, biochemical, fluorescence imaging, cherry-pick, set 5 (AID 720591);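 further: desuccinylation of succinyl peptide AMC substrate read as fluorescence after trypsin release; potency of inhibitors that lower fluorescence and may act on trypsin instead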
[12] = HEK293 cell cytotoxicity, dose response, cytotoxicity control, dry powder samples (AID 720567); type: functional, cell-based
[13] = cytotoxicity in HEK-293T cells, dose response, cytotoxicity control for TCR NF-kB inhibitor project, luminescence, T-cell screen hits (AID 489026); type: functional, cell-based;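 further: cells exposed to compound about 14 hours before the viability readout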
[14] = target: T1, Protein skinhead-1 (Caenorhabditis elegans, UniProt P34707); type: functional
T1 sequence (P34707 whole entry): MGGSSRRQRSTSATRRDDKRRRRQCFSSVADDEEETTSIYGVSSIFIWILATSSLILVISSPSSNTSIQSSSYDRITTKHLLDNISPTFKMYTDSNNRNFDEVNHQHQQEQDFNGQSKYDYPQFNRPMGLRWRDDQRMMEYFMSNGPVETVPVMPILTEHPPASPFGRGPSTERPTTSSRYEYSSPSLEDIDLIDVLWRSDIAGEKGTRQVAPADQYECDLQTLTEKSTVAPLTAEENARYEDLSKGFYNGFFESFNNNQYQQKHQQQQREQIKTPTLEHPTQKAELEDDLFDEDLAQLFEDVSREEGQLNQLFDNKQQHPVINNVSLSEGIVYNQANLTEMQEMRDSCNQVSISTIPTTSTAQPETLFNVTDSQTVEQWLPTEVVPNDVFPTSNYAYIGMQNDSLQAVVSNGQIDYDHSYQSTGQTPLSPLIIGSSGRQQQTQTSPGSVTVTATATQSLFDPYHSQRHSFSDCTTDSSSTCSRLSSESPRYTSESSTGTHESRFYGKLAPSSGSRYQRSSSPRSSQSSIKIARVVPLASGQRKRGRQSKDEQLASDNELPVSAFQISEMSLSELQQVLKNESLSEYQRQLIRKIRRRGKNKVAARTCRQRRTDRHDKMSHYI

[15] = A549 cell cytotoxicity, dose response, cytotoxicity control, plate reader, cherry-pick, antagonist series (AID 743412); type: functional, cell-based
[16] = HepG2 cell cytotoxicity, dose response, cytotoxicity control, ATP luminescence, cherry-pick, activator set 2 (AID 1053143); type: functional, cell-based
[17] = LGR2 antagonists, dose response, cell-based, HEK293, CRE-luciferase reporter, cherry pick, set 2 (AID 743343); type: functional;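 further: transfected cells were stimulated with diluted bursicon conditioned medium after compound addition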
[18] = MC4R antagonists, dose response, counter-screen for LGR2 antagonist project, cell-based, plate reader, cherry pick (AID 743444); type: functional;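 further: transfected HEK 293 cells stimulated with alpha-MSH peptide; potency of inhibitors of the alpha-MSH evoked signal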
[19] = HepG2 cell cytotoxicity, dose response, cytotoxicity control, plate reader, cherry-pick, antagonist series (AID 743416); type: functional, cell-based
[20] = Luminescence-based cell-based high throughput dose response assay to identify activators of the DAF-12 from the parasite S. stercoralis (ssDAF-12).; type: functional
[21] = Late-stage results from the probe development effort to identify antagonists of arginine vasopressin receptor 1a (AVPR1a): fluorescence-based cell-based dose response OXTR inhibition counterscreen assay.; type: functional
[22] = Late-stage results from the probe development effort to identify antagonists of arginine vasopressin receptor 1a (AVPR1a): fluorescence-based cell-based dose response AVPR1a inhibition assay.; type: functional
[23] = target: Vasopressin V1b receptor (Homo sapiens, UniProt P47901); test: Late-stage results from the probe development effort to identify antagonists of arginine vasopressin receptor 1a (AVPR1a): fluorescence-based cell-based dose response AVPR1b inhibition counterscreen assay.; type: functional
[24] = target: Vasopressin V2 receptor (Homo sapiens, UniProt P30518); test: Late-stage results from the probe development effort to identify antagonists of arginine vasopressin receptor 1a (AVPR1a): fluorescence-based cell-based dose response AVPR2 inhibition counterscreen assay.; type: functional
[25] = Late stage assay provider results from the probe development effort to identify inhibitors of the Plasmodium falciparum M18 Aspartyl Aminopeptidase (M18AAP): radiolabel-based cell-based dose response assay to identify compounds that inhibit P. falciparum growth in RBCs, Set 2..; type: functional

NAD-dependent protein deacylase sirtuin-5, mitochondrial, sequence (Q9NXA8 whole entry): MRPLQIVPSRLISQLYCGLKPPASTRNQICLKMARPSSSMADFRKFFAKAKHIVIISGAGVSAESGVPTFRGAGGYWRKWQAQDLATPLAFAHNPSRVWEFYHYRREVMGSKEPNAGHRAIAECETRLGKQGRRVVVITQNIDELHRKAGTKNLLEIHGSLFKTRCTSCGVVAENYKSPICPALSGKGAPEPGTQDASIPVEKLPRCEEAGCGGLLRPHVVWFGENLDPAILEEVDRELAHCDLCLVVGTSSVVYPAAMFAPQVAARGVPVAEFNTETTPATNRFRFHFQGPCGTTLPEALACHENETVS
Vasopressin V2 receptor, sequence (P30518 whole entry): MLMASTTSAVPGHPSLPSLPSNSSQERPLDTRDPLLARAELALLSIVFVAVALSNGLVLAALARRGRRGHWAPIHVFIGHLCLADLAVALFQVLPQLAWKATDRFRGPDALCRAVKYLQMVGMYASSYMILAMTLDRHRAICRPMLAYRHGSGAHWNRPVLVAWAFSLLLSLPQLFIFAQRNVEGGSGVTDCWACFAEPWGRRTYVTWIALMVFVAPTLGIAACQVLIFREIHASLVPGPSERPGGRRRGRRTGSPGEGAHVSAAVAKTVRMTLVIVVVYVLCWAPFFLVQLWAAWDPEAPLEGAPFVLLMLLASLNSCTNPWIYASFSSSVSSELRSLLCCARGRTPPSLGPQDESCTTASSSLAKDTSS
Vasopressin V1b receptor, sequence (P47901 whole entry): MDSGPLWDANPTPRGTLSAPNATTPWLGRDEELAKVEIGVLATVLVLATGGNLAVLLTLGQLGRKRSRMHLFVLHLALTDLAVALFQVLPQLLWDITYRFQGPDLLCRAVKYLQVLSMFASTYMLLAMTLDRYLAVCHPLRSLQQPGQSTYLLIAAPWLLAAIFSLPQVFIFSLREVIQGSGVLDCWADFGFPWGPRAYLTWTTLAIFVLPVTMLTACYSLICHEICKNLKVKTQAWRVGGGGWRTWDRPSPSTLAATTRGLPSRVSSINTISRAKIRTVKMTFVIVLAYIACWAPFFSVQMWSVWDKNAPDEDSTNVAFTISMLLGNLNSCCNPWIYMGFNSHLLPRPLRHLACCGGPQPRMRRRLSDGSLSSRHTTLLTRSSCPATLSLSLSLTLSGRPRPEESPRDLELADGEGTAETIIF

Question: Which AC50 [1] does the source give for `CS(=O)(=O)c1cccc(-c2nnc(SCc3ccccc3)o2)c1` here?
Answer: > 52 µM (inactive)

Question: For `C[C@H]1CN([C@@H](C)CO)C(=O)c2cccc(NC(=O)c3ccncc3)c2O[C@@H]1CN(C)Cc1ccccc1`, which IC50 [2] is on record?
Answer: 35.1 µM (inactive)

Question: And the AC50 [3]?
Answer: 12.3 nM (active)

Question: What about the AC50 [4] of the same compound?
Answer: 80 nM (active)

Question: And the IC50 [5]?
Answer: 4.83 µM (inactive)

Question: What about the IC50 [6] of the same compound?
Answer: > 100 µM (inactive)

Question: What about the AC50 [7] of the same compound?
Answer: 12.3 nM (active)

Question: What about the IC50 [8] of the same compound?
Answer: 9.42 nM (active)

Question: And the IC50 [9]?
Answer: 4.83 µM (inactive)

Question: What about the IC50 [10] of the same compound?
Answer: 84.4 µM (inactive)

Question: Which AC50 [11] does the source give for `COc1ccc(-n2c(/C=C/c3ccc4c(c3)OCO4)nc3ccccc3c2=O)cc1` here?
Answer: > 30 µM (inactive)

Question: For `CCOC(=O)COc1cccc2c(=O)n(CC(=O)NCc3ccccc3)ccc12`, which AC50 [12] is on record?
Answer: > 30 µM (inactive)

Question: And the IC50 [13]?
Answer: > 80 µM (inactive)

Question: Which IC50 [14] does the source give for `Cc1cc(-c2nc3cc(F)ccc3s2)ccc1N` here?
Answer: 19.1 µM (active)

Question: And the AC50 [15]?
Answer: 21.4 µM (active)

Question: And the AC50 [16]?
Answer: 550 nM (active)

Question: And the AC50 [17]?
Answer: 3.96 µM (active)

Question: And the AC50 [18]?
Answer: 3.8 µM (active)

Question: What about the AC50 [19] of the same compound?
Answer: 82.4 nM (active)

Question: What about the IC50 [20] of the same compound?
Answer: > 67.6 µM (inactive)

Question: Which results are given for `Cc1ccc(N2CCC(C(=O)N(CC3CC3)c3ccc(Cl)cc3)CC2)nc1`?
Answer: IC50 [21]: 12.4 µM (inactive); IC50 [22]: 20.1 nM (active); IC50 [23]: 20.8 µM (inactive); IC50 [24]: 12.3 µM (inactive)

Question: With `CCN(CC)Cc1cc(Nc2ccnc3cc(Cl)ccc23)ccc1O` as the compound, how does the IC50 [25] read?
Answer: 190 nM (active)

Source: ChEMBL document CHEMBL1201862, “PubChem BioAssay data set” (2004)
